Patent US20230172936A1, “VCP/p97 INHIBITOR FOR THE TREATMENT OF CANCER” (Cleave Therapeutics, Inc., priority 2020, published 2023)
Like-named read-outs stand apart in the source and are kept apart here.

What was measured:
[1] = tested on: OCI-AML-3; assay: Combination Index (Chou-Talalay) of Compound 1 with additional therapeutic agents; assay type: cell-based, human; details: for Combination Index of Compound 1 + agent: OCI-AML-3, CI scores across all 3 ratios averaged
Protocol: (§1) Each combination was tested in 3 cell lines: MOML-13 (Human Acute Myeloid Leukemia cell line; Addex Bio), MV-4-11 (Human B Myelomoncytic Leukemia cell line; ATCC), and OCI-AML-3 (Human Acute Myeloid Leukemia cell line).
(§2) Within this range, 20 dose levels were tested for each combination, with each response determined in duplicate. […] The actual drug concentrations in the ratios were determined from the IC50 values obtained for each individual drug.
(§3) Raw data was analyzed using Graph Pad Prism, four parameter logistic fits, and Chou-Talalay drug combination analyses. […] For data points with Fe<0, the fractional effect was set to 0.001. Data points with Fe>0.99 or <0.01 were omitted from the Chou-Talalay analysis because the Chou-Talalay analysis fits data to the Log of the fractional effect, with equal weight applied across the range of effect, such that the high and low end of the dose response, very small changes in effect within the range of experimental error erroneously skew the outcome of the model fit.
(§4) A Combination Index (CI) vs Fractional Effect plot showing the actual combination index plotted vs Fractional effect value was plotted for each combination dose. In this analysis, CI=1 represents additive activity, CI>1 represent less than additive activity (often referred to as antagonism) and CI<1=synergistic activity (better than additive).

[2] = tested on: MV-4-11; assay: as above; assay type: cell-based, human; details: for Combination Index of Compound 1 + agent: MV-4-11, CI scores across all 3 ratios averaged
Protocol: as §1, §2, §3, §4

[3] = tested on: MOML-13; assay: as above; assay type: cell-based, human; details: for Combination Index of Compound 1 + agent: MOML-13, CI scores across all 3 ratios averaged; for action of the combination with Compound 1 (synergistic, additive, antagonistic): MOML-13 (FLT3 heterozygous, BRCA2 mutant)
Protocol: as §1, §2, §3, §4

[4] = tested on: MOML-13 cell line; assay: Combination treatments, Cell Titer-Glo viability after 72 hours; assay type: cell-based, human
Protocol: (§5) The additional therapeutic agents for this example were azacitidine (Cayman Chemical Cat No. 11164), decitabine (Sigma Cat No. A3656) and venetoclax (InvivoChem Cat. No. V0001).
(§6) Cell Culture: Three human acute myeloid leukemia tumor cell lines were used in this study: HL60, MV4;11 and MOLM-13. HL60 and MV4;11 were grown in IMDM base media with 20% and 10% FBS, respectively. MOLM-13 was grown in RPMI 1640 base media with 20% FBS. All culture media contained 2 mM glutamine, 100 units/mL sodium penicillin G, […] gentamicin, and 100 μg/mL streptomycin sulfate. The tumor cells were cultured in tissue culture flasks in a humidified incubator at 37° C., in an atmosphere of 5% C02 and 95% air. Assay: Tumor cells were seeded in duplicate in a volume of 100 μL/well of media into 96-well micro-culture plates at initial densities low enough to allow for several population doublings (typically three to five) during the indicated incubation period. After a 24 hour incubation, test agents were added to each well. After 72 hours of culture with test articles, cell viability was determined using the Cell Titer-Glo® (Promega G7571) assay. Briefly, Cell Titer-Glo® (Promega G7571) reagents were equilibrated at room temperature for 30 minutes; 100 μL per well was added at endpoint (72 hours). Plates were gently shaken for two minutes and then incubated at room temperature for ten minutes prior to reading luminescence on the BMG Clariostar Plus microplate reader.
(§7) An IC50 ratio for each combination was calculated from the ratio of the combination IC50 as compared to the applicable no fixed agent (vehicle) control.

[5] = tested on: MV4; 11 cell line; assay: as above; assay type: cell-based, human
Protocol: as §5, §6, §7

[6] = tested on: HL-60 cell line; assay: as above; assay type: cell-based, human
Protocol: as §5, §6, §7

[7] = Adverse events and visual impairment in Phase I subjects; details: at equivalent plasma exposure of Compound 1 and CB-5083
[8] = tested on: human A549 lung adenocarcinoma xenograft tumors; assay: Tumor growth of A549 xenograft tumors; assay type: in vivo, mice; details: 55 mg/kg QD4/3 off
Excerpt: (§8) Group 1 received PO 4-days on, 3-days off doses (QD4/3 off) of vehicle.

[9] = 55 mg/kg QD4/3 off
Excerpt: as §8

[10] = MOML-13, fixed agent Compound 1 - 75 nM
[11] = MV4, 11, fixed agent Compound 1 - 185 nM
[12] = HL-60, fixed agent Compound 1 - 210 nM

CC1(C)CCC(CN2CCN(c3ccc(C(=O)NS(=O)(=O)c4ccc(NCC5CCOCC5)c([N+](=O)[O-])c4)c(Oc4cnc5[nH]ccc5c4)c3)CC2)=C(c2ccc(Cl)cc2)C1 [Venetoclax]
Combination Index of Compound 1 + agent [1]: 0.855
Combination Index of Compound 1 + agent [2]: 0.819
Combination Index of Compound 1 + agent [3]: 0.730

CC(C)C[C@H](NC(=O)CNC(=O)c1cc(Cl)ccc1Cl)B(O)O [Ixazomib]
action of the combination with Compound 1 (synergistic, additive, antagonistic) ([1]; OCI-AML-3 (FLT3 wildtype)): antagonistic
Combination Index of Compound 1 + agent [1]: 1.438
action of the combination with Compound 1 (synergistic, additive, antagonistic) ([2]; MV-4-11 (FLT3 homozygous mutant)): antagonistic
Combination Index of Compound 1 + agent [2]: 1.546
action of the combination with Compound 1 (synergistic, additive, antagonistic) [3]: antagonistic
Combination Index of Compound 1 + agent [3]: 1.413

COCC1(CO)C(=O)C2CCN1CC2 (stereo not shown) [APR-246]
Combination Index of Compound 1 + agent [1]: 1.279
Combination Index of Compound 1 + agent [2]: 1.285
Combination Index of Compound 1 + agent [3]: 1.228

Nc1ncn([C@H]2C[C@H](O)[C@@H](CO)O2)c(=O)n1 [Decitabine, decitabine, reference compound]
IC50 ([4]; Homo sapiens, 72 h): 10.8 nM
Combination: Monotherapy IC50 Ratio [4, 10]: 0.60
IC50 [4, 10]: 6.5 nM
IC50 ([5]; Homo sapiens, MV4-11, 72 h): 390 nM
Combination: Monotherapy IC50 Ratio [5, 11]: 0.02
IC50 [5, 11]: 7.1 nM
Combination: Monotherapy IC50 Ratio [6, 12]: 0.76
IC50 [6, 12]: 4030 nM
IC50 ([6]; Homo sapiens, HL-60, 72 h): 5290 nM

CCc1nc(C(N)=O)c(Nc2ccc(N3CCC(N4CCN(C)CC4)CC3)c(OC)c2)nc1NC1CCOCC1 [Gilteritinib]
Combination Index of Compound 1 + agent [1]: 1.514
Combination Index of Compound 1 + agent [2]: 0.799
Combination Index of Compound 1 + agent [3]: 1.266

Cc1cc2c(C(N)=O)cccc2n1-c1nc2c(c(NCc3ccccc3)n1)COCC2 [CB-5083, 1-[7,8-dihydro-4-[(phenylmethyl)amino]-5H-pyrano[4,3-d]pyrimidin-2-yl]-2-methyl-1H-indole-4-carboxamide, reference compound]
symptoms of visual impairment or other visual adverse events [7]: visual adverse events as seen
TGI [8]: 33%
drug-related deaths [9]: no drug-related deaths

NS(=O)(=O)OC[C@@H]1C[C@@H](n2ccc3c(N[C@H]4CCc5ccccc54)ncnc32)C[C@@H]1O [Pevonedistat]
Combination Index of Compound 1 + agent [1]: 1.186
Combination Index of Compound 1 + agent [2]: 1.302
Combination Index of Compound 1 + agent [3]: 1.120

CN(C)CCCOc1ccc(-c2ccc3ncc4c(c3c2)n(C2CCOCC2)c(=O)n4C)cn1 [AZDO156]
Combination Index of Compound 1 + agent [1]: 1.159
Combination Index of Compound 1 + agent [2]: 1.122
Combination Index of Compound 1 + agent [3]: 1.293

Nc1ncn([C@@H]2O[C@H](CO)[C@@H](O)[C@H]2O)c(=O)n1 [Azacitidine, azacitidine, reference compound]
IC50 ([4]; Homo sapiens, 72 h, MOML-13, no fixed agent (vehicle), read-out: IC50): 445 nM
Combination: Monotherapy IC50 Ratio [4, 10]: 0.28
IC50 ([5]; Homo sapiens, 72 h, MV4, 11, no fixed agent (vehicle), read-out: IC50): 1100 nM
Combination: Monotherapy IC50 Ratio [5, 11]: 0.10
Combination: Monotherapy IC50 Ratio [6, 12]: 0.82
IC50 ([6]; Homo sapiens, 72 h, HL-60, no fixed agent (vehicle), read-out: IC50): 2400 nM

C[C@@H]1COCCN1c1cc(C2([S@](C)(=N)=O)CC2)nc(-c2cc[nH]c3nccc2-3)n1 [AZD6738]
Combination Index of Compound 1 + agent [1]: 1.421
Combination Index of Compound 1 + agent [2]: 1.228
Combination Index of Compound 1 + agent [3]: 1.338

Cn1ncnc1[C@H]1c2n[nH]c(=O)c3cc(F)cc(c23)N[C@@H]1c1ccc(F)cc1 [Talazoparib]
Combination Index of Compound 1 + agent [1]: 0.986
Combination Index of Compound 1 + agent [2]: 0.769
action of the combination with Compound 1 (synergistic, additive, antagonistic) [3]: strong synergy
Combination Index of Compound 1 + agent [3]: 0.529

COc1ccc([C@@H](O)c2cc(-c3ncnc4cc(N5CCOCC5)ccc34)c(F)cc2Cl)nn1 [Nedisertib]
Combination Index of Compound 1 + agent [1]: 1.170
Combination Index of Compound 1 + agent [2]: 0.986
Combination Index of Compound 1 + agent [3]: 1.272
